Measurements as given in US10815230B2, “Casein kinase 1 delta inhibitor” (ELECTROPHORETICS LIMITED, priority 2015, dated 2020).

Experiments:
Assay in all cases: Kinase selectivity, % remaining activity
Format in all cases: biochemical
Conditions in all cases: 10 μM compound, 10 μM ATP, duplicate
CK1g3 = CK1g3 (Homo sapiens, UniProt Q9Y6M4)
Method: (§1) A two-tier strategy to determine the selectivity of compound A was applied: first, the compound was tested at a single concentration (in duplicate) to determine the %-remaining activity of the target kinase. Subsequently, the IC50 of compound A and comparative compounds for casein kinase 1 delta were determined.
(§2) Compounds were tested in single dose duplicate mode at a concentration of 10 μM (in DMSO) and reactions were carried out at 10 μM ATP, Table 3 reports the % of remaining activity (relative to DMSO).

DAPK1 = DAPK1 (Homo sapiens, UniProt P53355)
Method: as §1, §2

FGFR1 = FGFR1 (Homo sapiens, UniProt P11362)
Method: as §1, §2

c-Src = c-Src (Homo sapiens, UniProt P12931)
Method: as §1, §2

ALK5/TGFBR1 = target: T1, ALK5/TGFBR1 (Homo sapiens, UniProt P36897)
T1 sequence (P36897 34-503): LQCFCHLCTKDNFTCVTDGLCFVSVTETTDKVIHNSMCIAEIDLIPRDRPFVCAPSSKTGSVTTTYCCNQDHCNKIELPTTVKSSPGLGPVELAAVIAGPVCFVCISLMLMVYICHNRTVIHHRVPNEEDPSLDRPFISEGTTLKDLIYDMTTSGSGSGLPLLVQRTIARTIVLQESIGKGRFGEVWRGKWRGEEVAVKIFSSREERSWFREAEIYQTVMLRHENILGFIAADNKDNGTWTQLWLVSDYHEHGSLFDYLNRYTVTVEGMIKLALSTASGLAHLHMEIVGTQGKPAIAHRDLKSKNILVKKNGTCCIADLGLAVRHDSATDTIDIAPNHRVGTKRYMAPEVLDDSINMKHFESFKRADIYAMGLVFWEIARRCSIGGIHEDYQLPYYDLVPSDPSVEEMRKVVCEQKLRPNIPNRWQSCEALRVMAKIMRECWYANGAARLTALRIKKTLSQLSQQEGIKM
Method: as §1, §2

JNK2 = JNK2 (Homo sapiens, UniProt P45984)
Method: as §1, §2

CK1g1 = CK1g1 (Homo sapiens, UniProt Q9HCP0)
Method: as §1, §2

RIPK2 = RIPK2 (Homo sapiens, UniProt O43353)
Method: as §1, §2

ABL2/ARG = ABL2/ARG (Homo sapiens, UniProt P42684)
Method: as §1, §2

P38a/MAPK14 = P38a/MAPK14 (Homo sapiens, UniProt Q16539)
Method: as §1, §2

CDK5/p25 = CDK5/p25 (Homo sapiens, UniProt Q00535)
Method: as §1, §2

YES/YES1 = YES/YES1 (Homo sapiens, UniProt P07947)
Method: as §1, §2

GSK3B = GSK3B (Homo sapiens, UniProt P49841)
Method: as §1, §2

EGFR = EGFR (Homo sapiens, UniProt P00533)
Method: as §1, §2

CLK2 = CLK2 (Homo sapiens, UniProt P49760)
Method: as §1, §2

PKA = PKA (Homo sapiens, UniProt P17612)
Method: as §1, §2

PDK1/PDPK1 = target: T2, PDK1/PDPK1 (Homo sapiens, UniProt O15530)
T2 sequence (O15530 1-556): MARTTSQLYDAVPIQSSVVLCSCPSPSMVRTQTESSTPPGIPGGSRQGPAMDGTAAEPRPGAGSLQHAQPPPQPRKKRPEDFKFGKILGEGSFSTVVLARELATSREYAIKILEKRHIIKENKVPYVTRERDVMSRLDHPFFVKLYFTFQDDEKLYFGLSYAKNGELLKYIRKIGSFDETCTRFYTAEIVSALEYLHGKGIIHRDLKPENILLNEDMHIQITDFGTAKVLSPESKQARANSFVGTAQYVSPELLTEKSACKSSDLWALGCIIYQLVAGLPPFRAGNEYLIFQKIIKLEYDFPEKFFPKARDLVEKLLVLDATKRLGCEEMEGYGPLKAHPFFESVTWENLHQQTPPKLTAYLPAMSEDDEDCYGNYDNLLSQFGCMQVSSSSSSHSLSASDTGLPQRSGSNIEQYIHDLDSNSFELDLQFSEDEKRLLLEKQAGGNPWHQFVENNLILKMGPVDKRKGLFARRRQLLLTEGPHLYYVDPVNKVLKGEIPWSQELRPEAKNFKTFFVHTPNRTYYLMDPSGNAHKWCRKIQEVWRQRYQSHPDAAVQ
Method: as §1, §2

CK1e = CK1e (Homo sapiens, UniProt P49674)
Method: as §1, §2

PIM3 = PIM3 (Homo sapiens, UniProt Q86V86)
Method: as §1, §2

CK1g2 = CK1g2 (Homo sapiens, UniProt P78368)
Method: as §1, §2

PKCb2 = PKCb2 (Homo sapiens, UniProt P05771)
Method: as §1, §2

MSK1/RPS6KA5 = MSK1/RPS6KA5 (Homo sapiens, UniProt O75582)
Method: as §1, §2

TNIK = TNIK (Homo sapiens, UniProt Q9UKE5)
Method: as §1, §2

[1] = read-out: % of remaining activity (relative to DMSO)

Chain of ABL2/ARG (P42684 whole entry): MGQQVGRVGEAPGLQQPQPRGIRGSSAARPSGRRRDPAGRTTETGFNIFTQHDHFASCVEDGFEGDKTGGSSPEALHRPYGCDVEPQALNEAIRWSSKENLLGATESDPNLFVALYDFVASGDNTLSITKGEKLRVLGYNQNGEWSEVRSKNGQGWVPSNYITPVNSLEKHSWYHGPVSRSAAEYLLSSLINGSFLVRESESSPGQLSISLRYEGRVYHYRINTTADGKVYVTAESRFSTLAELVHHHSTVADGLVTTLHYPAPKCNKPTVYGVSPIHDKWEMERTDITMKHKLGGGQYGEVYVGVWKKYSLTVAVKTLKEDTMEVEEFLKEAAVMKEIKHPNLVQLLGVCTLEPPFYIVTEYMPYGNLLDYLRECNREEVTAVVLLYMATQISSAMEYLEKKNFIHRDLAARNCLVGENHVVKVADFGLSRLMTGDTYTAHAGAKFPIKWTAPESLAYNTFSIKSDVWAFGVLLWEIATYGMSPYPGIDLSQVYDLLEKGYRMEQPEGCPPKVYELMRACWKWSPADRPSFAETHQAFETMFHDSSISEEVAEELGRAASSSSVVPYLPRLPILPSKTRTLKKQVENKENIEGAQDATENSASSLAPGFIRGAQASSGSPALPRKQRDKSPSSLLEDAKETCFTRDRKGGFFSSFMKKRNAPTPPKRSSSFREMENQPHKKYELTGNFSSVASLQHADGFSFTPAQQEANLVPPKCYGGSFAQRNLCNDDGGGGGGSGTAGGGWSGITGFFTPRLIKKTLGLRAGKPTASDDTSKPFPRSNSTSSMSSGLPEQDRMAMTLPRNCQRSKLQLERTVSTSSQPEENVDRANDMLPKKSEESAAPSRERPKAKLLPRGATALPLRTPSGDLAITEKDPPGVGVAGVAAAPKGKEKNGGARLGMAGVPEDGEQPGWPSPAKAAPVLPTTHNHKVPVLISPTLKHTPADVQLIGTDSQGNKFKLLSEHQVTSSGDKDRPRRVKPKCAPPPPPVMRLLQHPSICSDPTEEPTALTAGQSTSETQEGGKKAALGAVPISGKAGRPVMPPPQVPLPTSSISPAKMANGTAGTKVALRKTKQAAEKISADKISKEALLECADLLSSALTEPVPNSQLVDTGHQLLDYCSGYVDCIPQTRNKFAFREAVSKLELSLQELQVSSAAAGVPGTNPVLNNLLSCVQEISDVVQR
Chain of PKCb2 (P05771 1-673 isoform P05771-2): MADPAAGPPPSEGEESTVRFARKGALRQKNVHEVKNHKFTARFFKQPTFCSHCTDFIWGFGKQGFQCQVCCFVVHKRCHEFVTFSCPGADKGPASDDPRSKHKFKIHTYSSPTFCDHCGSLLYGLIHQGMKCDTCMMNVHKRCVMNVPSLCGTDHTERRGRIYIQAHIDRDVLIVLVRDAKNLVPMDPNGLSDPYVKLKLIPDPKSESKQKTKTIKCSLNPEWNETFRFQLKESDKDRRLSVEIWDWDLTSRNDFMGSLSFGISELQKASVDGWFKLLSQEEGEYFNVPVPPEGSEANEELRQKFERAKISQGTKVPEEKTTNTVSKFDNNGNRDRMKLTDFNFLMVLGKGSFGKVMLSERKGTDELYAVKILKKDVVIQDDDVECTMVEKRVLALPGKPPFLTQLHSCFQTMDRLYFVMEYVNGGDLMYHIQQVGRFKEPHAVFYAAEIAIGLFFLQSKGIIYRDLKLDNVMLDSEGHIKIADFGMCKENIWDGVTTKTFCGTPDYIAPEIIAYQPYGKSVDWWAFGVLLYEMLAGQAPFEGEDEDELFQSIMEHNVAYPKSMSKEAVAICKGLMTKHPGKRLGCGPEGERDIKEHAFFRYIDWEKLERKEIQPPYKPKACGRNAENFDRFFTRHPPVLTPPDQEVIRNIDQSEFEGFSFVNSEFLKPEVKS
Chain of YES/YES1 (P07947 whole entry): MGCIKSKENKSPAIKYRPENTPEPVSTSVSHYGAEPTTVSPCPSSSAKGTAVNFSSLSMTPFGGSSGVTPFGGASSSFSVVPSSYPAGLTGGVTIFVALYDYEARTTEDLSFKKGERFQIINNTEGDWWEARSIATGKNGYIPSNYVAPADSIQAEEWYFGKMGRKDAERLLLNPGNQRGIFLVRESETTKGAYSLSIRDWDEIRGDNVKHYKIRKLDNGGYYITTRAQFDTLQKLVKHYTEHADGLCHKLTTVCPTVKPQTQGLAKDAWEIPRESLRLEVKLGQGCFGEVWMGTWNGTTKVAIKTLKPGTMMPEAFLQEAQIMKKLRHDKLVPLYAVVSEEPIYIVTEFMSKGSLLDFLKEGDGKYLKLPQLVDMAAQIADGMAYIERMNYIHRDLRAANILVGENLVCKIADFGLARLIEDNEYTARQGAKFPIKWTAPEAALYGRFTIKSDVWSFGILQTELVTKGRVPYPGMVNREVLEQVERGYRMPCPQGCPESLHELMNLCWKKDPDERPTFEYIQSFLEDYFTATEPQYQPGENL
Chain of DAPK1 (P53355 whole entry): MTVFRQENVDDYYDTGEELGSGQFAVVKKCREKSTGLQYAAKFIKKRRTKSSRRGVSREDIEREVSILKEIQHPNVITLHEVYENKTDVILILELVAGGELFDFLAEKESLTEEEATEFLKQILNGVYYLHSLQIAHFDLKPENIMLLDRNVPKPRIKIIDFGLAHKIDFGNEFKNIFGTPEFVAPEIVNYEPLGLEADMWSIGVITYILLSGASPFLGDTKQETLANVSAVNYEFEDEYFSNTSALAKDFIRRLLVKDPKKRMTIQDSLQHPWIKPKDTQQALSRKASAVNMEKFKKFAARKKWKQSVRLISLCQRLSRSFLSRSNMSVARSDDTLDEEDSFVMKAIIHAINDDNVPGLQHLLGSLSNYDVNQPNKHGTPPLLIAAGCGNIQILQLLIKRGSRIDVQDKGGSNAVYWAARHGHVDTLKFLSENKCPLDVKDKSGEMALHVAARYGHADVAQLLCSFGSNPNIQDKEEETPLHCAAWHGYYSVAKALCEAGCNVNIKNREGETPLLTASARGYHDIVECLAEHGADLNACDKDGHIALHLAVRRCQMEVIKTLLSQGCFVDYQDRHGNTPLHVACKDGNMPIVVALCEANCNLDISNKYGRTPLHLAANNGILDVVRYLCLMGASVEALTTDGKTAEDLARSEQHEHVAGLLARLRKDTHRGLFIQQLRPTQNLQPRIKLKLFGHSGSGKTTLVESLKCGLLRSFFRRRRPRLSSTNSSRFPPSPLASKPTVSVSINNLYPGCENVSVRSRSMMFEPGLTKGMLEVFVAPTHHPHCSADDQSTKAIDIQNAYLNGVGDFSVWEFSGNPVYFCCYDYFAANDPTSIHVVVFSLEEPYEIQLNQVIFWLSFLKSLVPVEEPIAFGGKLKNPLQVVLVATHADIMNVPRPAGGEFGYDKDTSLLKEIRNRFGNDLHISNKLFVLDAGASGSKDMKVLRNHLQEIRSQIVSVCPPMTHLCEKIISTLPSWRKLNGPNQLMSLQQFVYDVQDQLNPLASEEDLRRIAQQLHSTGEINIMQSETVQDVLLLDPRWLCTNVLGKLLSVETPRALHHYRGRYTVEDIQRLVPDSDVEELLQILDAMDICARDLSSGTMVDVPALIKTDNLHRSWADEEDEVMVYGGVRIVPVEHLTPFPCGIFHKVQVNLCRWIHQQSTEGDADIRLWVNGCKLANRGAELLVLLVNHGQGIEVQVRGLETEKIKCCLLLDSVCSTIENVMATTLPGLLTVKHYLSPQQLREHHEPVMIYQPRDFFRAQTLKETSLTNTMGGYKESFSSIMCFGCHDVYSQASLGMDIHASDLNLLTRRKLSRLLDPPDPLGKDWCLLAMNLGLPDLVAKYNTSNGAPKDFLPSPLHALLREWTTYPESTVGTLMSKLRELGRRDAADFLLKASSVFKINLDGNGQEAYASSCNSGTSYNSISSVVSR
Chain of JNK2 (P45984 whole entry): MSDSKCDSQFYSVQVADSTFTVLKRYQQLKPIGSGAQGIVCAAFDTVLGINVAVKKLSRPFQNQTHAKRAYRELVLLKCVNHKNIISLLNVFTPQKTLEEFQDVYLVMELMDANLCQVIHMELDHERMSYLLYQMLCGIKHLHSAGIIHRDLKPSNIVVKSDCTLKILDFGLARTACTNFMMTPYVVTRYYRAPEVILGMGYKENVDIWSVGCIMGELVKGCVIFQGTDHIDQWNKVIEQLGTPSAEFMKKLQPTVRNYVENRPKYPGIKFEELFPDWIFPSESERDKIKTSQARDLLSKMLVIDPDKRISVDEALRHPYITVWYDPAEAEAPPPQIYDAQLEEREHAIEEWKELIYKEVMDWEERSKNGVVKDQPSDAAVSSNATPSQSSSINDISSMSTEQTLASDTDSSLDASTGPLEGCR
Chain of CK1g3 (Q9Y6M4 whole entry): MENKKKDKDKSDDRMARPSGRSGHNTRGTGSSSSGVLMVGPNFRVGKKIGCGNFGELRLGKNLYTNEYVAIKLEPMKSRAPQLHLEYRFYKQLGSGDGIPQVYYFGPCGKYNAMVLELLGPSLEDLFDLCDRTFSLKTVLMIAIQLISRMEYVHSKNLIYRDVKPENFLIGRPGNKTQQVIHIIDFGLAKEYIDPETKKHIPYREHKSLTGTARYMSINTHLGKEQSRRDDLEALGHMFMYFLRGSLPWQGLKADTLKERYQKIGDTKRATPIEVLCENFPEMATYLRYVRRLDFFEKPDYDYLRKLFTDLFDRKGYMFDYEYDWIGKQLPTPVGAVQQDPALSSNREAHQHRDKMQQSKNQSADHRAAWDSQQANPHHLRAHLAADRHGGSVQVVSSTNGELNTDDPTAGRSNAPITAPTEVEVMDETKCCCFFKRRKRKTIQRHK

For `COc1ccc(C=C2N=C(c3cccs3)OC2=O)cc1` [Comparative Compound 315, 4-((4-methoxyphenyl)methylene)-2-(2-thienyl)-5(4H)-oxalone], the “% of remaining activity (relative to DMSO)” value (CK1g3; listed as Cmp 315) was 2.99%, the remaining activity at 10 µM (CK1g3; [1]) was 2.9% and the “% of remaining activity (relative to DMSO)” value (DAPK1; listed as Cmp 315) was 90.84%. The remaining activity at 10 µM (DAPK1; [1]) was 96%, the “% of remaining activity (relative to DMSO)” value (FGFR1; listed as Cmp 315) was 101.65% and the remaining activity at 10 µM (FGFR1; [1]) was 102%. The “% of remaining activity (relative to DMSO)” value (c-Src; listed as Cmp 315) was 101.24%, the remaining activity at 10 µM (c-Src; [1]) was 104% and the “% of remaining activity (relative to DMSO)” value (ALK5/TGFBR1; listed as Cmp 315) was 110.31%. For the same compound, the remaining activity at 10 µM (ALK5/TGFBR1; [1]) was 107%, the “% of remaining activity (relative to DMSO)” value (JNK2; listed as Cmp 315) was 98.70% and the remaining activity at 10 µM (JNK2; [1]) was 99.4%. The “% of remaining activity (relative to DMSO)” value (CK1g1; listed as Cmp 315) was 73.02%, the remaining activity at 10 µM (CK1g1; [1]) was 71.9% and the “% of remaining activity (relative to DMSO)” value (RIPK2; listed as Cmp 315) was 90.19%. The remaining activity at 10 µM (RIPK2; [1]) was 93.4%, the “% of remaining activity (relative to DMSO)” value (ABL2/ARG; listed as Cmp 315) was 89.19% and the remaining activity at 10 µM (ABL2/ARG; [1]) was 83.4%. The “% of remaining activity (relative to DMSO)” value (P38a/MAPK14; listed as Cmp 315) was 107.03%, the remaining activity at 10 µM (P38a/MAPK14; [1]) was 105% and the “% of remaining activity (relative to DMSO)” value (CDK5/p25; listed as Cmp 315) was 94.86%. For the same compound, the remaining activity at 10 µM (CDK5/p25; [1]) was 96.1%, the “% of remaining activity (relative to DMSO)” value (YES/YES1; listed as Cmp 315) was 99.08% and the remaining activity at 10 µM (YES/YES1; [1]) was 99%. The “% of remaining activity (relative to DMSO)” value (GSK3B; listed as Cmp 315) was 115.26%, the remaining activity at 10 µM (GSK3B; [1]) was 120% and the “% of remaining activity (relative to DMSO)” value (EGFR; listed as Cmp 315) was 117.99%. The remaining activity at 10 µM (EGFR; [1]) was 111%, the “% of remaining activity (relative to DMSO)” value (CLK2; listed as Cmp 315) was 48.99% and the remaining activity at 10 µM (CLK2; [1]) was 50.6%. The “% of remaining activity (relative to DMSO)” value (PKA; listed as Cmp 315) was 112.40%, the remaining activity at 10 µM (PKA; [1]) was 116% and the “% of remaining activity (relative to DMSO)” value (PDK1/PDPK1; listed as Cmp 315) was 103.28%. The remaining activity at 10 µM (PDK1/PDPK1; [1]) was 105%, the “% of remaining activity (relative to DMSO)” value (CK1e; listed as Cmp 315) was 6.51% and the remaining activity at 10 µM (CK1e; [1]) was 5.45%. The “% of remaining activity (relative to DMSO)” value (PIM3; listed as Cmp 315) was 57.54%, the remaining activity at 10 µM (PIM3; [1]) was 60.6% and the “% of remaining activity (relative to DMSO)” value (CK1g2; listed as Cmp 315) was 50.52%. The remaining activity at 10 µM (CK1g2; [1]) was 47.3%, the “% of remaining activity (relative to DMSO)” value (PKCb2; listed as Cmp 315) was 110.56% and the remaining activity at 10 µM (PKCb2; [1]) was 112%. The “% of remaining activity (relative to DMSO)” value (MSK1/RPS6KA5; listed as Cmp 315) was 118.15%, the remaining activity at 10 µM (MSK1/RPS6KA5; [1]) was 117% and the “% of remaining activity (relative to DMSO)” value (TNIK; listed as Cmp 315) was 101.11%. The remaining activity at 10 µM (TNIK; [1]) was 101%.
